# Experimental data taken from patent US12281080B2, “Quinoline-based compounds and methods of inhibiting CDK8/19” (University of South Carolina, priority 2018, dated 2025).
# Columns and labels:
# RIPK4 = RIPK4 (Homo sapiens (Human), UniProt P57078); assay: KINOMEscan scanMAX; type: binding; details: 2000 nM; read-out: Percent Control
# PRP4 (PRPF4B) = PRP4 (PRPF4B) (Homo sapiens (Human), UniProt Q13523); assay: KINOMEscan scanMAX; type: binding; details: 2000 nM; read-out: Percent Control
# GRK7 = GRK7 (Homo sapiens (Human), UniProt Q8WTQ7); assay: KINOMEscan scanMAX; type: binding; details: 2000 nM; read-out: Percent Control
# CDKL3 = CDKL3 (Homo sapiens (Human), UniProt Q8IVW4); assay: KINOMEscan scanMAX; type: binding; details: 2000 nM; read-out: Percent Control
# CSNK1A1 = CSNK1A1 (Homo sapiens (Human), UniProt P48729); assay: KINOMEscan scanMAX; type: binding; details: 2000 nM; read-out: Percent Control
# Chain of CSNK1A1 (P48729 whole entry): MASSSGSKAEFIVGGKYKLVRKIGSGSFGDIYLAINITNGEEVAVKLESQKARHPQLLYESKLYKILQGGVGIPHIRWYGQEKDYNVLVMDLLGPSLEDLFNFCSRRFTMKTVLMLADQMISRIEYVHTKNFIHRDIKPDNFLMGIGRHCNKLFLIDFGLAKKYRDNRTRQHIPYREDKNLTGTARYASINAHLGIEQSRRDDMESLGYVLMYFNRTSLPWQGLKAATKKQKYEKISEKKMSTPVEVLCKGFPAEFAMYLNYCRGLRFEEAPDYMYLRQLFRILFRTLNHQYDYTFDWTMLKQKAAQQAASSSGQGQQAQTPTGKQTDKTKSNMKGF
# CDK8/19 = assay: Wash-off assay, MYC and JUN expression in 293 cells (QPCR); type: cell-based, human; details: 1 μM for 2 hours, then wash-off; MYC and JUN
# Method: RNA was extracted at different time points after wash-off (up to 24 hrs) and expression of MYC and JUN genes that are CDK8/19-dependent in these cells was measured by QPCR. […] In contrast, after Senexin C treatment and wash-off, the effects of Senexin C were largely retained for at least 6 hrs after wash-off.
# PAK4 = PAK4 (Homo sapiens (Human), UniProt O96013); assay: KINOMEscan scanMAX; type: binding; details: 2000 nM; read-out: Percent Control
# PLK2 = PLK2 (Homo sapiens (Human), UniProt Q9NYY3); assay: KINOMEscan scanMAX; type: binding; details: 2000 nM; read-out: Percent Control
# HIPK1 = HIPK1 (Homo sapiens (Human), UniProt Q86Z02); assay: KINOMEscan scanMAX; type: binding; details: 2000 nM; read-out: Percent Control
# PAK3 = PAK3 (Homo sapiens (Human), UniProt O75914); assay: KINOMEscan scanMAX; type: binding; details: 2000 nM; read-out: Percent Control
# ALK(L1196M) = ALK(L1196M) (Homo sapiens (Human), UniProt Q9UM73, L1196M); assay: KINOMEscan scanMAX; type: binding; details: 2000 nM; read-out: Percent Control
# [1] = target: EGFR(L747-E749del, A750P) (Homo sapiens (Human), UniProt P00533, A750P/DEL747-749); assay: KINOMEscan scanMAX; type: binding; details: 2000 nM; read-out: Percent Control
# Chain of EGFR(L747-E749del, A750P) (P00533 other isoform, or with tags, fused parts or gaps A750P/del L747-E749): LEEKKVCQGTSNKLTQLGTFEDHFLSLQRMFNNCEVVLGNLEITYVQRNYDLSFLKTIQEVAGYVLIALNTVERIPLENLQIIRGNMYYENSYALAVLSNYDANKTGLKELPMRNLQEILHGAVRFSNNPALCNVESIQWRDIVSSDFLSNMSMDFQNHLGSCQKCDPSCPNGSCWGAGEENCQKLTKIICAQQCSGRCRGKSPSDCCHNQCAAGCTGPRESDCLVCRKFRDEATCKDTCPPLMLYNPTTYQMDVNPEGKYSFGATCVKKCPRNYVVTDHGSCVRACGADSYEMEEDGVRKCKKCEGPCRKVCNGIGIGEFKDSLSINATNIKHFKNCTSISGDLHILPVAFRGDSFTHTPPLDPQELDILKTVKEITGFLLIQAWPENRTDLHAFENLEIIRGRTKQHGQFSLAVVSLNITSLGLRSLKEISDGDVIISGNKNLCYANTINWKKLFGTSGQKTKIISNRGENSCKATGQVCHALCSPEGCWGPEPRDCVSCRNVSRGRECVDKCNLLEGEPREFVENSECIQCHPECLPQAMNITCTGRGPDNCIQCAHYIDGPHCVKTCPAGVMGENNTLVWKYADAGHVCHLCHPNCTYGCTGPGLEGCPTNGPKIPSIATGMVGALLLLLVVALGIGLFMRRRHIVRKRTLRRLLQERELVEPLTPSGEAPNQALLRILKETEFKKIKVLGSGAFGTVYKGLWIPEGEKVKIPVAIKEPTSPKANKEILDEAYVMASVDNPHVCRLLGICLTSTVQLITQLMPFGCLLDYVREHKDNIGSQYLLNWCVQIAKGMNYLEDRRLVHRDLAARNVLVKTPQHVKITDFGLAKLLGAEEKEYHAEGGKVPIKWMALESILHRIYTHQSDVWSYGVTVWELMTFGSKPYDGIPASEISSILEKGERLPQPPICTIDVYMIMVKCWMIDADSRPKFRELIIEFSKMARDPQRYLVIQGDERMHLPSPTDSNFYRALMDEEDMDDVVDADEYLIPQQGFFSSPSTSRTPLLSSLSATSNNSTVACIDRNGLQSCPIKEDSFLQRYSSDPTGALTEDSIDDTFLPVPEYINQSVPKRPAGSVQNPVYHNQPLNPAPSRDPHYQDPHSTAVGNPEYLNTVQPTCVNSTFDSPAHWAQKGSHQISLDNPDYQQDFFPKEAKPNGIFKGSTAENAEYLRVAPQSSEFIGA
# SIK (SIK1) = SIK (SIK1) (Homo sapiens (Human), UniProt P57059); assay: KINOMEscan scanMAX; type: binding; details: 2000 nM; read-out: Percent Control
# SYK = SYK (Homo sapiens (Human), UniProt P43405); assay: KINOMEscan scanMAX; type: binding; details: 2000 nM; read-out: Percent Control
# TNNI3K = TNNI3K (Homo sapiens (Human), UniProt Q59H18); assay: KINOMEscan scanMAX; type: binding; details: 2000 nM; read-out: Percent Control
# Chain of TNNI3K (Q59H18 whole entry): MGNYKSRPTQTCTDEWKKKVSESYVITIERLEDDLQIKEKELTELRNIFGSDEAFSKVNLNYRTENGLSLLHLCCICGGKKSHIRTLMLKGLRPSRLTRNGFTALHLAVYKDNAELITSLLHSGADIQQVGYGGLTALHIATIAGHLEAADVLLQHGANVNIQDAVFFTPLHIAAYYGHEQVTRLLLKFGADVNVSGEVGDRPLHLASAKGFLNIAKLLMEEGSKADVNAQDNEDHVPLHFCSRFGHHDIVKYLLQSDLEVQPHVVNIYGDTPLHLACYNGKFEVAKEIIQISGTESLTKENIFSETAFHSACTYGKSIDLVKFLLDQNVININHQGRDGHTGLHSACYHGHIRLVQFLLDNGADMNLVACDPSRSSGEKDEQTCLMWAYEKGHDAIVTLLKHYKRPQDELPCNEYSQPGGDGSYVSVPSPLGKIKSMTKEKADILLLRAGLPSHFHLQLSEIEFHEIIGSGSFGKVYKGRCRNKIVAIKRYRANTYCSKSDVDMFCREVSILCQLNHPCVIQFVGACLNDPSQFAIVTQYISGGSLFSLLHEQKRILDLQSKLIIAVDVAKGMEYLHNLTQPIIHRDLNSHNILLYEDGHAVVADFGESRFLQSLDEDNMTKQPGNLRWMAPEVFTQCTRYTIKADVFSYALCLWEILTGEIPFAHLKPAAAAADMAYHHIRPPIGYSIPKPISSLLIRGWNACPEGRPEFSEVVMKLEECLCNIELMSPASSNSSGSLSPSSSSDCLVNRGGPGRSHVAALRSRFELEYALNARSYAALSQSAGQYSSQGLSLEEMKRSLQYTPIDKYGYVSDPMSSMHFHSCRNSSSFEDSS
# [2] = target: RPS6KA4(Kin.Dom.2-C-terminal) (Homo sapiens (Human), UniProt O75676); assay: KINOMEscan scanMAX; type: binding; details: 2000 nM; read-out: Percent Control
# CAMK1G = CAMK1G (Homo sapiens (Human), UniProt Q96NX5); assay: KINOMEscan scanMAX; type: binding; details: 2000 nM; read-out: Percent Control
# DMPK = DMPK (Homo sapiens (Human), UniProt Q09013); assay: KINOMEscan scanMAX; type: binding; details: 2000 nM; read-out: Percent Control
# Chain of DMPK (Q09013 whole entry): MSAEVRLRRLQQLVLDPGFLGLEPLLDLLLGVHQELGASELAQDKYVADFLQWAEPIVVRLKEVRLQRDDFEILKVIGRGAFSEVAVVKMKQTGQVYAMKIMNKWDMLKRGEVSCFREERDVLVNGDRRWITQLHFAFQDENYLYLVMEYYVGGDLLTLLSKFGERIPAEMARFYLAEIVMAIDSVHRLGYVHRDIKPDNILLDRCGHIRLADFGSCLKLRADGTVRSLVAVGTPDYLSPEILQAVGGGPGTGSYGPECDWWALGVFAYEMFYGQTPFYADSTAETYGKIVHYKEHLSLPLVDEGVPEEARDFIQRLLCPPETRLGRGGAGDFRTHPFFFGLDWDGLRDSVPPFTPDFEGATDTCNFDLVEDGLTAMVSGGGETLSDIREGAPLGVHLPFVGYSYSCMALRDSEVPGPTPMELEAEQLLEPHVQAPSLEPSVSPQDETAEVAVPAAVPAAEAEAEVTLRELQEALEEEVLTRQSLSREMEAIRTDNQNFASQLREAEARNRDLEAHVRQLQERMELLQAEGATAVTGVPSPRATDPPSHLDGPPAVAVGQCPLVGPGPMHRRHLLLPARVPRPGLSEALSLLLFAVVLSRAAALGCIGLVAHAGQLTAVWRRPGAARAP
# DDR1 = DDR1 (Homo sapiens (Human), UniProt Q08345); assay: KINOMEscan scanMAX; type: binding; details: 2000 nM; read-out: Percent Control
# CDK11 (CDK19) = CDK11 (CDK19) (Homo sapiens (Human), UniProt Q9BWU1); assay: KINOMEscan scanMAX; type: binding; details: 2000 nM; read-out: Percent Control
# YSK4 (MAP3K19) = YSK4 (MAP3K19) (Homo sapiens (Human), UniProt Q56UN5); assay: KINOMEscan scanMAX; type: binding; details: 2000 nM; read-out: Percent Control
# SNRK = SNRK (Homo sapiens (Human), UniProt Q9NRH2); assay: KINOMEscan scanMAX; type: binding; details: 2000 nM; read-out: Percent Control
# Chain of SNRK (Q9NRH2 whole entry): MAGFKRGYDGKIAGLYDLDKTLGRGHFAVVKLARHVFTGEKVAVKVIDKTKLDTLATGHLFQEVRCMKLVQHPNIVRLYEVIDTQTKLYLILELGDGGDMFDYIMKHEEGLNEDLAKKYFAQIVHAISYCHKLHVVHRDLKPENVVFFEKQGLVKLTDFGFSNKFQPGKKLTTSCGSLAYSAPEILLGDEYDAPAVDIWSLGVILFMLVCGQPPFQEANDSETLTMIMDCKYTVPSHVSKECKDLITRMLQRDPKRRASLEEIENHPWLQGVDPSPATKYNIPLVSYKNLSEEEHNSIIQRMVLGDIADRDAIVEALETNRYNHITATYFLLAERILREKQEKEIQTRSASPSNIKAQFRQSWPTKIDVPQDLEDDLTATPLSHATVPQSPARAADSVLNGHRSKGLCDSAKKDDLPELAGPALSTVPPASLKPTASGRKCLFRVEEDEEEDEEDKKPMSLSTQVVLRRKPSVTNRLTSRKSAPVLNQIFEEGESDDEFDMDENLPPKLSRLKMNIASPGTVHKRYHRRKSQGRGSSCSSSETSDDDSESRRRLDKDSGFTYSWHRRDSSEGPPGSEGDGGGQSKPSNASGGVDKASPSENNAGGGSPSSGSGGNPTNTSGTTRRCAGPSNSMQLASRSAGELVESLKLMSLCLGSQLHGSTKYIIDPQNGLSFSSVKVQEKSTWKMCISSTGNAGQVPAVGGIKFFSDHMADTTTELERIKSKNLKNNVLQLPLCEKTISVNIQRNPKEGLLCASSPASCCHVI
# LIMK2 = LIMK2 (Homo sapiens (Human), UniProt P53671); assay: KINOMEscan scanMAX; type: binding; details: 2000 nM; read-out: Percent Control
# PIK3CG = PIK3CG (Homo sapiens (Human), UniProt P48736); assay: KINOMEscan scanMAX; type: binding; details: 2000 nM; read-out: Percent Control
# EPHB6 = EPHB6 (Homo sapiens (Human), UniProt O15197); assay: KINOMEscan scanMAX; type: binding; details: 2000 nM; read-out: Percent Control
# ULK1 = ULK1 (Homo sapiens (Human), UniProt O75385); assay: KINOMEscan scanMAX; type: binding; details: 2000 nM; read-out: Percent Control
# KIT = KIT (Homo sapiens (Human), UniProt P10721); assay: KINOMEscan scanMAX; type: binding; details: 2000 nM; read-out: Percent Control
# PRKCH = PRKCH (Homo sapiens (Human), UniProt P24723); assay: KINOMEscan scanMAX; type: binding; details: 2000 nM; read-out: Percent Control
# [3] = tested on: 468 human kinases and disease relevant mutant variants; assay: KINOMEscan scanMAX panel, whole panel; type: binding; details: 2,000 nM; CDK2, 3, 4, 5, 7, 9, 11A, 11B, 13, 14, 15, 16, 17, 18, CDKL1, CDKL3, CDKL5
# EPHB1 = EPHB1 (Homo sapiens (Human), UniProt P54762); assay: KINOMEscan scanMAX; type: binding; details: 2000 nM; read-out: Percent Control
# CDK8 = CDK8 (Homo sapiens (Human), UniProt P49336); assay: KINOMEscan scanMAX; type: binding; details: 2000 nM; read-out: Percent Control
# CDK4-cyclinD1 = CDK4-cyclinD1 (Homo sapiens (Human), UniProt P11802); assay: KINOMEscan scanMAX; type: binding; details: 2000 nM; read-out: Percent Control
# ERK5 (MAPK7) = ERK5 (MAPK7) (Homo sapiens (Human), UniProt Q13164); assay: KINOMEscan scanMAX; type: binding; details: 2000 nM; read-out: Percent Control
# [4] = target: JAK3(JH1domain-catalytic) (Homo sapiens (Human), UniProt P52333); assay: KINOMEscan scanMAX; type: binding; details: 2000 nM; read-out: Percent Control
# Chain of JAK3(JH1domain-catalytic) (P52333 822-1111): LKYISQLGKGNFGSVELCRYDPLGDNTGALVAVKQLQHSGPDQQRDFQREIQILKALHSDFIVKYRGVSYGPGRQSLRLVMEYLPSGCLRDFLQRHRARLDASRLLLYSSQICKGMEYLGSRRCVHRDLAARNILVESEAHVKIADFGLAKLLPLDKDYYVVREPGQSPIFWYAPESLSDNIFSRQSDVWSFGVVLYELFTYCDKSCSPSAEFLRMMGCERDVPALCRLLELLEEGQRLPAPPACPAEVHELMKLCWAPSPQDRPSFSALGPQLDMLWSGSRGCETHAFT
# [5] = target: ABL1(M351T)-phosphorylated (Homo sapiens (Human), UniProt P00519, M351T); assay: KINOMEscan scanMAX; type: binding; details: 2000 nM; read-out: Percent Control
# VPS34 (PIK3C3) = VPS34 (PIK3C3) (Homo sapiens (Human), UniProt Q8NEB9); assay: KINOMEscan scanMAX; type: binding; details: 2000 nM; read-out: Percent Control
# MAP4K2 = MAP4K2 (Homo sapiens (Human), UniProt Q12851); assay: DiscoverX Kd assay
# Chain of PRP4 (PRPF4B) (Q13523 whole entry, looked up): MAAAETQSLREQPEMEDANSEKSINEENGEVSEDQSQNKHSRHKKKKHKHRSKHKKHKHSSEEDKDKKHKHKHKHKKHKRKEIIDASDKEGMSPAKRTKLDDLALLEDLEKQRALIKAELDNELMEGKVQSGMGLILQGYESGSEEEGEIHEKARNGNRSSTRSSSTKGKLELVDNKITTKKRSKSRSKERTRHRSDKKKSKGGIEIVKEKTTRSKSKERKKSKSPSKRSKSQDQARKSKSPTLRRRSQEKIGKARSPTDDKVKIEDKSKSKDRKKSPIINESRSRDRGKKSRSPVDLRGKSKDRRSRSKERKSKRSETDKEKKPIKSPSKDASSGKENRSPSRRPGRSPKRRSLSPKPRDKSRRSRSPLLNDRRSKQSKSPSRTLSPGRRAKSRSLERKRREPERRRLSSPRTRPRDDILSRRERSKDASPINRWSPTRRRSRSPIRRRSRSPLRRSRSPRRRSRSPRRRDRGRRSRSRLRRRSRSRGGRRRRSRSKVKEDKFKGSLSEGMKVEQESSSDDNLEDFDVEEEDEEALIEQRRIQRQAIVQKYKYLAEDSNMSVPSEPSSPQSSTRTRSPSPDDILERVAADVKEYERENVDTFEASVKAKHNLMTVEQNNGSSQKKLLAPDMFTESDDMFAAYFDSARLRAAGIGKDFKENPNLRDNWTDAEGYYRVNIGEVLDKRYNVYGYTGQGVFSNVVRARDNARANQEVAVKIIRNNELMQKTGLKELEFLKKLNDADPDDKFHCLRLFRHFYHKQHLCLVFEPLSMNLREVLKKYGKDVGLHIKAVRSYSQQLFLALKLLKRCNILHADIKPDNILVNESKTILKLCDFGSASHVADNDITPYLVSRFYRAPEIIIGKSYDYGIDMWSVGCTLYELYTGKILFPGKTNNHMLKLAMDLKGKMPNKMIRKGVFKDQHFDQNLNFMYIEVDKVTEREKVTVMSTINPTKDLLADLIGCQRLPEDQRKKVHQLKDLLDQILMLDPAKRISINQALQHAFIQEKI
smiles,measurement,setting,value
"CN1CCN(C(=O)c2ccc3cc(CCNc4ccnc5ccc(C#N)cc45)ccc3c2)CC1 [compound 6148, 4-((2-(6-(4-methylpiperazine-1-carbonyl)naphthalen-2-yl)ethyl)amino)quinoline-6-carbonitrile]",remaining binding at 2 µM,RIPK4,57%
same,remaining binding at 2 µM,PRP4 (PRPF4B),71%
same,remaining binding at 2 µM,GRK7,87%
same,remaining binding at 2 µM,CDKL3,87%
same,remaining binding at 2 µM,CSNK1A1,76%
same,Time effects largely retained after wash-off,CDK8/19,at least 6 hrs
same,remaining binding at 2 µM,PAK4,97%
same,remaining binding at 2 µM,PLK2,80%
same,remaining binding at 2 µM,HIPK1,73%
same,remaining binding at 2 µM,PAK3,98%
same,remaining binding at 2 µM,ALK(L1196M),92%
same,remaining binding at 2 µM,[1],77%
same,remaining binding at 2 µM,SIK (SIK1),91%
same,remaining binding at 2 µM,SYK,97%
same,remaining binding at 2 µM,TNNI3K,100%
same,remaining binding at 2 µM,[2],62%
same,remaining binding at 2 µM,CAMK1G,92%
same,remaining binding at 2 µM,DMPK,98%
same,remaining binding at 2 µM,DDR1,100%
same,remaining binding at 2 µM,CDK11 (CDK19),13%
same,remaining binding at 2 µM,YSK4 (MAP3K19),50%
same,remaining binding at 2 µM,SNRK,75%
same,remaining binding at 2 µM,LIMK2,93%
same,remaining binding at 2 µM,PIK3CG,76%
same,remaining binding at 2 µM,EPHB6,86%
same,remaining binding at 2 µM,ULK1,66%
same,remaining binding at 2 µM,KIT,95%
same,remaining binding at 2 µM,PRKCH,91%
same,POC of the other members of the CDK family in the scanMAX panel,[3],≥ 64 POC
same,remaining binding at 2 µM,EPHB1,92%
same,remaining binding at 2 µM,CDK8,1.3%
same,remaining binding at 2 µM,CDK4-cyclinD1,83%
same,remaining binding at 2 µM,ERK5 (MAPK7),94%
same,remaining binding at 2 µM,[4],65%
same,remaining binding at 2 µM,[5],80%
same,remaining binding at 2 µM,VPS34 (PIK3C3),68%
same,Kd,MAP4K2,940 nM
